Holding throughout (type): cell-based
The test system of test [1] is A375. Put plainly: Cancer cell viability (CellTiterGlo), A375. The following applies: RXR modulators each at 0.5 uM with peptide imm3A1 0.66 uM, 72 hour; untreated=100. Here is the method:
(§1) A375, A549 and HuT78 cancer cell lines was obtained from American Type Culture Collection (ATCC). They were grown in a T-75 flask in DMEM (or IMDM, for HuT78) medium containing 10% fetal bovine serum and penicillin-streptomycin at 37° C. in a humidified, 5% CO2 incubator. Cells (100 µl, 2,000 cells/well; 5,000 cells/well for HuT78) were plated in a 96-well plate and incubated overnight at 37° C. in a humidified, 5% CO2 incubator. Next day, 10 ul/well of compounds were added (quadruplicate wells). After 72 hour incubation with the compound, cell viability was measured in a luminometer by addition of 100 µL/well CellTiterGlo reagent (Promega Inc, Madison, WI) and reading chemiluminescence after 10 mins, as recommended by the manufacturer. Peptide imm3A1 ([…]-[…]) was added at 0.66 uM and RXR modulators, each at 0.5 uM. The results of this experiment are shown below, expressed as percent survival of cells (untreated=100).

Test [2] relates to A549. Put plainly: Cancer cell viability (CellTiterGlo), A549. The conditions noted are these: RXR modulators each at 0.5 uM with peptide imm3A1 0.66 uM, 72 hour; untreated=100. The method, then: as §1
(In ATP-based viability assays light output follows the ATP content of the culture.)

Test [3] has as its system HuT78. Put plainly: Cancer cell viability (CellTiterGlo), HuT78. The following applies: RXR modulators each at 0.5 uM with peptide imm3A1 0.66 uM, 72 hour; untreated=100. Here is the method: as §1
In test [4] the test system is HFF-1 cell line. Nature of the test: Collagen stimulating activity (COL1A1 ELISA of supernatants). The conditions noted are these: peptide 2 uM, 72 hour, supernatant anti-COL1A1 ELISA. Here is the method: Immodulin peptides have potential untility in the field of cosmetics. HFF-1 cell line from American Type Culture Collection (ATCC) was grown in DMEM Medium containing 10% fetal bovine serum and penicillin-streptomycin at 37° C. in a humidified, 5% CO2 incubator. 2,000 cells/well were plated in a 96-well plate and incubated overnight. 10 ul/well of peptides (2 uM final concentration) were added in quadruplicate wells. After 72 hour incubation with the compound, supernatants were collected and immunoreactivity was measured by ELISA using monoclonal anti-COL1A1 antibody (Abcam, Cambridge, MA). * p<0.05, ** p<0.01 vs no peptide.

The test system of test [5] is C2C12 myoblast cell line. Nature of the test: C2C12 myoblast differentiation assay (creatine kinase). Set-up: CK (units/mg): unit not given here. The following applies: for CK (units/mg): peptide(s) 0.66 uM, no free added ligand, 96 h, relative to imm3SVD (=100). Here is the method:
C2C12 myoblast cell line (ATCC, Manassas, VA) was cultured in DMEM medium supplemented with 10% FBS and 1% penicillin/streptomycin. For differentiation, cells were cultured in the same medium, except that 10% FBS was replaced by 2% horse serum. Peptides and NR ligands were added at the indicated concentrations and cells were harvested 96 hours later for assay. Cell extracts were assayed for creatine kinase (CK) per mg protein. CK was measured using the ECPK-100 kit from BioAssay Systems (Hayward, CA). Protein was assayed using the BCA protein assay kit from Thermofisher Scientific (Waltham, MA).

Marks after values point to notes of the source that are not given here. Primed or numbered codes have the meaning given here. Ends that are not written are not given here. * marks the point of attachment. GW4064″ = FXR ligand, CC(C)c1onc(-c2c(Cl)cccc2Cl)c1COc1ccc(/C=C/c2cccc(C(=O)*)c2)c(Cl)c1; RARβ/γ ligand = not defined here; Decanoyl = CCCCCCCCCC(=O)*; bexarotene″ = RXR ligand; GW4064(3) = FXR ligand; GW7647 = PPARα ligand

In the case of `CN1c2ccc([N+](=O)[O-])cc2N=C(c2ccc(C(=O)O)cc2)c2cc3c(cc21)C(C)(C)CCC3(C)C` [HX531], the “percent survival of cells, A375” value in test [1] came out at 89.9 ± 1.6 a percent. Besides, the “percent survival of cells, A549” value in test [2] was found to be 89.2 ± 4.1 b percent. Further, the “percent survival of cells, HuT78” value in test [3] came to 88.1 ± 0.8%.
In the same order, the values of `CN1c2ccccc2N=C(c2ccc(C(=O)O)cc2)c2cc3c(cc21)C(C)(C)CCC3(C)C` [HX600] are 57.1 ± 0.6 a percent, 60.0 ± 0.6 a percent and 48.7 ± 2.8 a percent.
As to IM3: peptide KKGFYKKKQCRPSKGRKRGFCW, the COL1 in test [4] is 0.28 ± 0.23 ng/mL.
As for “IM3K9: peptide AFNSYELGSKGFYKKKQCRPSKGRKRGFCW”, the COL1 ng/ml in test [4] is given as 0.57 ± 0.13** ng/ml.
On to “IM3dec: (decanoic)-KKGFYKKKQCRPSKGRKRGFCW, N-lig PPARγ (Decanoyl-KKGFYKKKQCRPSKGRKRGFCW; cysteine pairing not given here)”, for which the COL1 ng/ml in test [4] was 0.41 ± 0.11* ng/ml.
As for “imm3bex: SDKKGFYKKKQCRPSKGRKRGFCWSVDK with C-lig bexarotene (RXR ligand) (SDKKGFYKKKQCRPSKGRKRGFCWSVDK-{bexarotene″}; cysteine pairing not given here)”, the “CK (units/mg)” value in test [5] turned out to be 121.0 ± 6.6.
As to “imm3decK9adp: multisynchron SAFNSYELGSDKKGFYKKKQCRPSKGRKRGFCWS, N-lig PPARγ, C-lig RARβ/γ (Decanoyl-SAFNSYELGSDKKGFYKKKQCRPSKGRKRGFCWS-{RARβ/γ ligand}; cysteine pairing not given here; reading uncertain)”, the COL1 ng/ml in test [4] is 5.27 ± 0.36** ng/ml.
For the compound “imm3fxr-bex: fxr-SDKKGFYKKKQCRPSKGRKRGFCWSVDK-[bex]: GW4064 at N-terminus, bexarotene at C-terminus; multisynchron ({GW4064″}-SDKKGFYKKKQCRPSKGRKRGFCWSVDK-{bexarotene″}; cysteine pairing not given here)”, the “performance in cell culture assays” value in test [5] (single peptide compared with combination of imm3fxr and imm3bex) is “performs as predicted from the performance of the combination of imm3fxr and imm3bex episynchrons”.
In the case of “imm3fxr: SDKKGFYKKKQCRPSKGRKRGFCWSVDK with C-lig GW4064 (FXR ligand) (SDKKGFYKKKQCRPSKGRKRGFCWSVDK-{GW4064(3)}; cysteine pairing not given here)”, in test [5], the “CK (units/mg)” value is reported as 136.8 ± 19.6.
The same measure, in the same setting: the result for “imm3ppa: SDKKGFYKKKQCRPSKGRKRGFCWSVDK with C-lig GW7647 (PPARα ligand) on C-terminal lysine (SDKKGFYKKKQCRPSKGRKRGFCWSVDK(GW7647); cysteine pairing not given here)” reads 155.9 ± 18.8.

Source of the values: patent publication US20260265341A1, “EPISYNCHRONS FOR PRECISION MEDICINE” (priority 2022, published 2026).
